The results in this text go back to patent publication US9949970B2, “Synthesis of new benzothiazole derivatives as potential anti-tubercular agents” (priority 2010, dated 2018).

Values after ≈ are worked out from the molar mass of the structure shown. Where two headings read alike, the source gives them in different places.

In one data set the test system is M. tuberculosis H37Rv. The data set is described as follows: Antimycobacterial activity: MIC by broth microdilution / Nitrate Reductase Assay. The data set is classed as cell-based, Mycobacterium tuberculosis. The note with it: lowest concentration showing no colour change (NRA). A general note: Dilution methods test growth across graded concentrations, often in twofold steps.

In another data set the test system is AML-12 cell lines. The data set is described as follows: Cytotoxicity MTT assay on AML-12 cell lines. The note with it: for Cytotoxicity: AML-12 cell line, MTT, 24 hrs, test material 2-100 μg/ml; for Cytotoxicity (result in words): AML-12 cell lines, MTT assay. Type of data set: cell-based. On the procedure: The potent compounds 3j, 4e, 6a, 6f, 6g, 6i, and 6p were evaluated for cytotoxic effect on AML-12 cell lines using MTT assay, in a 96 well plate format. Cells were incubated in Dulbecco's Modified Eagle's Medium (DMEM) containing 10% fetal calf serum (FCS) with the test material (2-100 μg/ml) for 24 hrs. at 37° C. in CO2 incubator. After the completion of incubation 3-(4,5-dimethylthiazol-2-yl)-2,5-diphenyltetrazolium bromide (MTT) was added and cells were further incubated for 3 h at 37° C. in CO2 incubator. Formation of formazan salt by mitochondrial dehydrogenases, and was determined by Elisa reader at 565 nm (Multiskan Spectrum; Thermo Electron Corporation, USA). The percentage cytotoxicity was calculated with respect to the untreated cells.
On the technique in general: Tetrazolium assays rely on reduction of a dye to a coloured formazan, in cell work by metabolically active cells.

For a further data set, the system named is M. tuberculosis (H37Rv). Description: In vivo efficacy in lungs of infected mice. The note with it: for In vivo activity (result in words) / Decrease of bacterial load in lung with late control (protections): mice; for In vivo activity (result in words): lung; for Decrease of bacterial load in lung with late control (protections): versus late control; for Log10 CFU/left Lung: infected female Swiss albino mice. On the set-up: species or system Swiss albino mice.

Where [1] appears, read: Mycobacterium tuberculosis, H37RV, read-out: MIC.
The mark [2] stands for this setting: Mycobacterium tuberculosis, H37RV.

As for `O=[N+]([O-])c1ccc(C=NNc2nc3ccccc3s2)o1` [Compound 3a, 5-nitro-2-furaldehyde 2-(1,3-benzothiazole-2-yl)hydrazone], the minimum inhibitory concentration (MIC) (usually the least concentration at which growth counts as inhibited) in the data set with M. tuberculosis H37Rv (setting [1]) is over 16 µg/mL.

For `O=[N+]([O-])c1ccc(C=NNc2nc3ccccc3s2)s1` [Compound 3b, 5-nitro-2-thiophenecarbaldehyde 2-(1,3-benzothiazole-2-yl)hydrazone], the minimum inhibitory concentration (MIC) with M. tuberculosis H37Rv (setting [1]) is over 16 µg/mL.

As to `Cc1ccc2nc(NN=Cc3ccc([N+](=O)[O-])o3)sc2c1` [Compound 3c, 5-nitro-2-furaldehyde 2-(6-methyl-1,3-benzothiazole-2-yl)hydrazone], the MIC with M. tuberculosis H37Rv (setting [1]) was over 16 µg/mL.

With `Cc1ccc2nc(NN=Cc3ccc([N+](=O)[O-])s3)sc2c1` [Compound 3d, 5-nitro-2-thiophenecarbaldehyde 2-(6-methyl-1,3-benzothiazole-2-yl)hydrazone], in the data set with M. tuberculosis H37Rv (setting [1]), the MIC was over 16 µg/mL.

As for `COc1ccc2nc(NN=Cc3ccc([N+](=O)[O-])o3)sc2c1` [Compound 3e, 5-nitro-2-furaldehyde 2-(6-methoxy-1,3-benzothiazole-2-yl)hydrazone], the minimal inhibitory concentration (MIC) with M. tuberculosis H37Rv (setting [1]) is over 16 µg/mL.

With `COc1ccc2nc(NN=Cc3ccc([N+](=O)[O-])s3)sc2c1` [Compound 3f, 5-nitro-2-thiophenecarbaldehyde 2-(6-methoxy-1,3-benzothiazole-2-yl)hydrazone], the MIC in the data set on M. tuberculosis H37Rv (setting [1]) is over 16 µg/mL.

As for `O=[N+]([O-])c1ccc(C=NNc2nc3ccc(C(F)(F)F)cc3s2)o1` [Compound 3g, 5-nitro-2-furaldehyde 2-(6-trifluoromethyl-1,3-benzothiazole-2-yl)hydrazone], in the data set with M. tuberculosis H37Rv (setting [1]), the MIC is over 16 µg/mL.

As for `O=[N+]([O-])c1ccc(C=NNc2nc3ccc(C(F)(F)F)cc3s2)s1` [Compound 3h, 5-nitro-2-thiophenecarbaldehyde 2-(6-trifluoromethyl-1,3-benzothiazole-2-yl)hydrazone], the MIC in the data set on M. tuberculosis H37Rv (setting [1]) was over 16 µg/mL.

In the case of `O=[N+]([O-])c1ccc(C=NNc2nc3ccc(OC(F)(F)F)cc3s2)o1` [Compound 3i, 5-nitro-2-furaldehyde 2-(6-trifluoromethoxy-1,3-benzothiazole-2-yl)hydrazone], the MIC in the data set on M. tuberculosis H37Rv (setting [1]) is over 16 µg/mL.

In the case of `O=[N+]([O-])c1ccc(C=NNc2nc3ccc(OC(F)(F)F)cc3s2)s1` [Compound 3j, 5-nitro-2-thiophenecarbaldehyde 2-(6-trifluoromethoxy-1,3-benzothiazole-2-yl)hydrazone], the MIC with M. tuberculosis H37Rv (setting [1]) was 0.5 to 8 µg/mL (≈ 1.29 to 20.6 µM); in the data set with M. tuberculosis H37Rv it was 1 µg/mL (≈ 2.57 µM). Further, the Cytotoxicity with AML-12 cell lines was over 100 µg/mL. For the same molecule, the “Cytotoxicity (result in words)” value in the data set on AML-12 cell lines was “no cytotoxicity”.

As for `O=[N+]([O-])c1ccc(C=NNc2nc3ccc(F)cc3s2)o1` [Compound 3k, 5-nitro-2-furaldehyde 2-(6-fluoro-1,3-benzothiazole-2-yl)hydrazone], the MIC with M. tuberculosis H37Rv (setting [1]) was over 16 µg/mL.

Consider `O=[N+]([O-])c1ccc(C=NNc2nc3ccc(F)cc3s2)s1` [Compound 3l, 5-nitro-2-thiophenecarbaldehyde 2-(6-fluoro-1,3-benzothiazole-2-yl)hydrazone], for which, in the data set on M. tuberculosis H37Rv (setting [1]), the minimum inhibitory concentration (MIC) is over 16 µg/mL.

Consider `O=[N+]([O-])c1ccc(C=NNc2nc3ccc(Cl)cc3s2)o1` [Compound 3m, 5-nitro-2-furaldehyde 2-(6-chloro-1,3-benzothiazole-2-yl)hydrazone], for which the MIC in the data set with M. tuberculosis H37Rv (setting [1]) stood at 16 µg/mL (≈ 49.6 µM).

As to `O=[N+]([O-])c1ccc(C=NNc2nc3ccc(Cl)cc3s2)s1` [Compound 3n, 5-nitro-2-thiophenecarbaldehyde 2-(6-chloro-1,3-benzothiazole-2-yl)hydrazone], the minimum inhibitory concentration (MIC) in the data set on M. tuberculosis H37Rv (setting [1]) is over 16 µg/mL.

Turning to `O=[N+]([O-])c1ccc2nc(NN=Cc3ccc([N+](=O)[O-])o3)sc2c1` [Compound 3o, 5-nitro-2-furaldehyde 2-(6-nitro-1,3-benzothiazole-2-yl)hydrazone], inhibition of growth against M. tuberculosis H37Rv (setting [2]) (MIC) required 16 µg/mL (≈ 48 µM).

`O=[N+]([O-])c1ccc2nc(NN=Cc3ccc([N+](=O)[O-])s3)sc2c1` [Compound 3p, 5-nitro-2-thiophenecarbaldehyde 2-(6-nitro-1,3-benzothiazole-2-yl)hydrazone] yielded a minimum inhibitory concentration (MIC) against M. tuberculosis H37Rv (setting [2]) of over 16 µg/mL.

Take `O=C(NNc1nc2ccccc2s1)c1ccc([N+](=O)[O-])o1` [Compound 4a, N′2-(1,3-benzothiazol-2-yl)-5-nitro-2-furancarbohydrazide]: in the data set on M. tuberculosis H37Rv (setting [1]), the MIC was over 16 µg/mL.

For `Cc1ccc2nc(NNC(=O)c3ccc([N+](=O)[O-])o3)sc2c1` [Compound 4b, N′2-(6-methyl-1,3-benzothiazol-2yl)-5-nitro-2-furancarbohydrazide], the MIC with M. tuberculosis H37Rv (setting [1]) was over 16 µg/mL.

Regarding `COc1ccc2nc(NNC(=O)c3ccc([N+](=O)[O-])o3)sc2c1` [Compound 4c, N′2-(6-methoxy-1,3-benzothiazol-2-yl)-5-nitro-2-furancarbohydrazide], the MIC in the data set on M. tuberculosis H37Rv (setting [1]) was over 16 µg/mL.

As for `O=C(NNc1nc2ccc(C(F)(F)F)cc2s1)c1ccc([N+](=O)[O-])o1` [Compound 4d, N′2-(6-trifluoromethyl-1,3-benzothiazol-2-yl)-5-nitro-2-furancarbohydrazide], the minimal inhibitory concentration (MIC) in the data set with M. tuberculosis H37Rv (setting [1]) was over 16 µg/mL.

Turning to `O=C(NNc1nc2ccc(OC(F)(F)F)cc2s1)c1ccc([N+](=O)[O-])o1` [Compound 4e, N′2-(6-trifluoromethoxy-1,3-benzothiazol-2-yl)-5-nitro-2-furanecarbohydrazide], in the data set on AML-12 cell lines, the Cytotoxicity was over 100 µg/mL and the “Cytotoxicity (result in words)” value is “no cytotoxicity”.

`O=C(NNc1nc2ccc(F)cc2s1)c1ccc([N+](=O)[O-])o1` [Compound 4f, N′2-(6-fluoro-1,3-benzothiazol-2-yl)-5-nitro-2-furanecarbohydrazide]: in the data set on M. tuberculosis H37Rv (setting [1]), the minimal inhibitory concentration (MIC) is over 16 µg/mL.

For `O=C(NNc1nc2ccc(Cl)cc2s1)c1ccc([N+](=O)[O-])o1` [Compound 4g, N′2-(6-chloro-1,3-benzothiazol-2-yl)-5-nitro-2-furanecarbohydrazide], in the data set with M. tuberculosis H37Rv (setting [1]), the MIC was over 16 µg/mL.

In the data set on M. tuberculosis H37Rv (setting [2]), `O=C(NNc1nc2ccc([N+](=O)[O-])cc2s1)c1ccc([N+](=O)[O-])o1` [Compound 4h, N′2-(6-nitro-1,3-benzothiazol-2-yl)-5-nitro-2-furanecarbohydrazide] came in with an MIC of 16 µg/mL (≈ 45.8 µM).

For `O=C(Nc1nc2ccc(NC(=O)c3ccc([N+](=O)[O-])o3)cc2s1)c1ccccc1` [Compound 6a, N2-[2-(benzoylamino)-1,3-benzothiazol-6-yl]-5-nitrofuramide], the minimal inhibitory concentration (MIC) in the data set on M. tuberculosis H37Rv (setting [1]) lay in the range of 0.5 to 8 µg/mL (≈ 1.22 to 19.6 µM). The “MIC” value with M. tuberculosis H37Rv is 1 µg/mL (≈ 2.45 µM). Also, in the data set on AML-12 cell lines, the Cytotoxicity was over 100 µg/mL and the “Cytotoxicity (result in words)” value is reported as “no cytotoxicity”.

As for `O=C(Nc1nc2ccc(NC(=O)c3ccc([N+](=O)[O-])o3)cc2s1)c1ccc(F)cc1` [Compound 6f, N2-{2-[(4-fluorobenzoyl)amino]-1,3-benzothiazol-6-yl}-5-nitrofuramide], in the data set with M. tuberculosis (H37Rv) (25 mg/kg), the “In vivo activity (result in words)” value was “bacteriostatic activities”, the “Decrease of bacterial load in lung with late control (protections)” value is given as 1.0 and the “Log10 CFU/left Lung” value is given as 6.0 ± 0.13. Moreover, the “MIC” value against M. tuberculosis H37Rv was determined as 0.5 µg/mL (≈ 1.17 µM). Further, in the data set with AML-12 cell lines, the Cytotoxicity was over 100 µg/mL and the “Cytotoxicity (result in words)” value is given as “no cytotoxicity”.

With `O=C(Nc1nc2ccc(NC(=O)c3ccc([N+](=O)[O-])o3)cc2s1)c1ccc(Cl)cc1` [Compound 6g, N2-{2-[(4-chlorobenzoyl)amino]-1,3-benzothiazol-6-yl}-5-nitrofuramide], in the data set on M. tuberculosis (H37Rv) (25 mg/kg), the “In vivo activity (result in words)” value is recorded as “bacteriostatic activities”, the “Decrease of bacterial load in lung with late control (protections)” value came out at 1.0 and the “Log10 CFU/left Lung” value is 6.1 ± 0.48. For the same molecule, the “MIC” value against M. tuberculosis H37Rv is 0.5 µg/mL (≈ 1.13 µM). Besides, in the data set with AML-12 cell lines, the Cytotoxicity is over 100 µg/mL and the “Cytotoxicity (result in words)” value is “no cytotoxicity”.

On to `O=C(Nc1nc2ccc(NC(=O)c3ccc([N+](=O)[O-])o3)cc2s1)c1cnccn1` [Compound 6p, N2-(6-{[(5-nitro-2-furyl)carbonyl]amino}-1,3-benzothiazol-2-yl)-2-pyrazinecarboxamide], for which the “MIC” value against M. tuberculosis H37Rv stood at 1 µg/mL (≈ 2.44 µM). Moreover, in the data set with AML-12 cell lines, the Cytotoxicity is over 100 µg/mL and the “Cytotoxicity (result in words)” value was “no cytotoxicity”.

Turning to `NNC(=O)c1ccncc1` [INH, Isoniazid, reference compound], the minimal inhibitory concentration (MIC) in the data set with M. tuberculosis H37Rv (setting [1]) came out at 0.5 µg/mL (≈ 3.65 µM).

Turning to `CO[C@H]1/C=C/O[C@@]2(C)Oc3c(C)c(O)c4c(O)c(c(/C=N/N5CCN(C)CC5)c(O)c4c3C2=O)NC(=O)/C(C)=C\C=C\[C@H](C)[C@H](O)[C@@H](C)[C@@H](O)[C@@H](C)[C@H](OC(C)=O)[C@@H]1C` [RMP, Rifampicin, reference compound], the “Log10 CFU/left Lung” value with M. tuberculosis (H37Rv) (20 mg/kg) came out at 2.0 ± 0.41. The minimal inhibitory concentration (MIC) in the data set on M. tuberculosis H37Rv (setting [1]) was 0.25 µg/mL (≈ 0.304 µM).

As for “N2-(2-{[(E)-3-(4-chlorophenyl)-2-propenoyl]amino}-1,3-benzothiazol-6-yl)-5-nitro-2-furamide [Compound 6w]”, in the data set with AML-12 cell lines, the Cytotoxicity was over 100 µg/mL and the “Cytotoxicity (result in words)” value is recorded as “no cytotoxicity”.

On to “N2-(2-{[(E)-3-phenyl-2-propenoyl]amino}-1,3-benzothiazol-6-yl}-5-nitro-2-furamide [Compound 6q]”, for which the minimum inhibitory concentration (MIC) against M. tuberculosis H37Rv came to 8.0 µg/mL. In the data set on AML-12 cell lines, the Cytotoxicity was over 100 µg/mL and the “Cytotoxicity (result in words)” value is recorded as “no cytotoxicity”.

As to “N3-(6-{[(5-nitro-2-furyl)carbonyl]amino}-1,3-benzothiazol-2-yl)nicotinamide [Compound 6o]”, in the data set with M. tuberculosis H37Rv, the “MIC” value turned out to be 4.0 µg/mL. In the data set with AML-12 cell lines, the Cytotoxicity is over 100 µg/mL and the “Cytotoxicity (result in words)” value was “no cytotoxicity”.
